Holding throughout (assay type): in vivo
The test system of one series is male mice. The series is described as follows: Determination of the Minimal Toxic Dose (oral, mice). To be noted: mouse, p.o.; observed 3 h, symptoms and deaths over 24 h. The protocol:
1. Determination of the Minimal Toxic Dose.
Maximum doses of 300 mg/kg of the test compound are administered orally to three male mice having a weight of 20-25 g and toxicity symptoms are carefully observed for a period of three hours. Furthermore, over a period of 24 hours from the administration all symptoms and deaths are registered. Side-symptoms are also observed and registered. Depending on their water solubility, the test compounds are administered either in form of aqueous solutions or in form of suspensions without the use of solvents. In order to maintain a stable suspension of the test compound, one drop of Tween-80 can be added and the mixture can be mechanically homogenized. In the case of compounds where deaths or toxic symptoms have been observed, additional mice are treated with decreasing doses until a dose is reached at which no toxic symptoms occur. The lowest dose which causes toxic symptoms is considered the minimal toxic dose.

Series [1] relates to mice (tail flick, heat beam pain reaction). Description: Tail flick Test in Mice. The note with it: sc, 0.5 h; mouse, s.c.; 30 minutes after administration; >75% increase of reaction time in 50% of animals. The protocol: (§1) This analgesic activity has been evaluated in two pharmacological standard methods, the tail flick test in mice and the arthritis pain test in rats.
3. Tail flick Test in Mice.
This test is carried out according to the method described by D'Amour and Smith (1941), yet fed male and female mice having a body weight of 16 to 25 g are used instead of rats. Thirty minutes prior to treatment with the test compound, each mouse is placed separately in a cylindrical container in such a manner that it cannot turn itself or move forward. Its tail is positioned in a narrow groove projecting out of the container. A certain point of the tail of each animal (about 35 mm beyond the root of the tail) is subjected to the heat beam of a lamp of known strength and temperature which is positioned directly under the tail. The number of seconds which pass before the mouse moves its tail out of the light beam is determined twice, once 30 minutes and once 15 minutes prior to subcutaneous administration of the test compound (10 mg/kg). Mice which show a reaction time differing more than 25% are eliminated from the test. The reaction time is again determined 15 minutes and 30 minutes after the treatment and an increase of the reaction period of more than 75% of the average values prior to treatment in the same animal is considered as showing an analgesic effect. The ED50 (95% reliability) of each test compound 30 minutes after administration is evaluated according to the method of Litchfield and Wilcoxon (1949). The dose which increases the reaction time as compared to the reaction time prior to treatment for more than 75% in 50% of the animals is considered as ED50.
In general terms: Hot-plate and tail-flick tests time the reaction to a heat stimulus.

Series [2] relates to rats (secondary arthritis pain, mycobacterium smegmae). Description: Arthritis Pain Test in Rats. To be noted: po, rat, p.o., 3 hours after administration, protection in 50% of treated animals. As to the method: as §1
2. Arthritis Pain Test in Rats.
Male rats having a weight of from 160 to 180 g are anesthetized by small i.p. injection of 20 mg/kg of sodium pentobarbital and 0.1 ml of a suspension of mycobacterium smegmae (SI 043) in liquid paraffin (0.6 mg mycobacterium/0.1 ml of oil) are injected intracutaneously into the left rear paw. Fourteen days later when a marked secondary arthritis has developed in particular in the right rear paw, the effect of the test compound is evaluated. A control-reading is taken 30 minutes prior to administration of the test compound by bending the foot joint of the right rear paw three times and counting the number of squeakings. […] Three hours after oral administration of the test compound the bending of the joint is repeated. Animals which squeak only once or not at all are considered to be protected against pain. Between about 9 and 20 rats are used per dose and the ED50 (95% reliability) is determined according to the method of Litchfield and Wilcoxon (1949). The dose which provides protection in 50% of the treated animals is taken as ED50.

This note sets out measurements from patent US4382030A, “2-Acylaminomethyl-1,4-benzodiazepine derivatives and their salts, pharmaceutical compositions thereof and process for their preparation” (Kali-Chemie Pharma GmbH, priority 1979, dated 1983).

Broadly, the ED50 is the dose that gives a 50% effect, or the effect in half of the subjects. A lower ED50 goes with an effect at a small dose.

For the compound `CN1c2ccccc2C(c2ccccc2F)=NCC1CNC(=O)c1ccoc1` (stereo not drawn) [Compound 19, 1-methyl-2-[(furane-3-carbonyl)-aminomethyl]-5-(2-fluorophenyl)-1H-2,3-dihydro-1,4-benzodiazepine], the “MDL (minimal toxic dose)” value in the series on male mice is reported as above 300 mg/kg. For the same compound, the ED50 in series [1] is 0.56 mg/kg; in series [2], 13 mg/kg.
As for `CN1c2ccccc2C(c2ccccc2F)=NCC1CNC(=O)c1ccsc1` (stereo not drawn) [Compound 20, 1-methyl-2-[(thiophene-3-carbonyl)-aminomethyl]-5-(2-fluorophenyl)-1H-2,3-dihydro-1,4-benzodiazepine], the “MDL (minimal toxic dose)” value with male mice was above 300 mg/kg. Also, the ED50 in series [1] turned out to be 1.1 mg/kg; in series [2] it was 18 mg/kg.
With `CN1c2ccccc2C(c2ccccc2F)=NCC1CNC(=O)c1cccs1` (stereo not drawn) [Compound 21, 1-methyl-2-[(thiophene-2-carbonyl)-aminomethyl]-5-(2-fluorophenyl)-1H-2,3-dihydro-1,4-benzodiazepine], the “MDL (minimal toxic dose)” value in the series with male mice is on record as above 300 mg/kg. Further, the ED50 was 6.2 mg/kg in series [1] and 13 mg/kg in series [2].
